Key:
Assay in all cases: Kinase profiling
Assay type in all cases: biochemical
SRPK1 = biological target: T1, SRPK1 (Homo sapiens, UniProt Q96SB4)
T1 construct: purchased ProQinase (Freiburg, Germany)
Description: (§1) The analysis was performed by ProQinase (Freiburg, Germany).

MAP3K9 = biological target: T2, MAP3K9 (Homo sapiens, UniProt P80192)
T2 construct: purchased ProQinase (Freiburg, Germany)
Description: as §1

TBK1 = biological target: T3, TBK1 (Homo sapiens, UniProt Q9UHD2)
T3 construct: purchased ProQinase (Freiburg, Germany)
T3 sequence (Q9UHD2 1-729): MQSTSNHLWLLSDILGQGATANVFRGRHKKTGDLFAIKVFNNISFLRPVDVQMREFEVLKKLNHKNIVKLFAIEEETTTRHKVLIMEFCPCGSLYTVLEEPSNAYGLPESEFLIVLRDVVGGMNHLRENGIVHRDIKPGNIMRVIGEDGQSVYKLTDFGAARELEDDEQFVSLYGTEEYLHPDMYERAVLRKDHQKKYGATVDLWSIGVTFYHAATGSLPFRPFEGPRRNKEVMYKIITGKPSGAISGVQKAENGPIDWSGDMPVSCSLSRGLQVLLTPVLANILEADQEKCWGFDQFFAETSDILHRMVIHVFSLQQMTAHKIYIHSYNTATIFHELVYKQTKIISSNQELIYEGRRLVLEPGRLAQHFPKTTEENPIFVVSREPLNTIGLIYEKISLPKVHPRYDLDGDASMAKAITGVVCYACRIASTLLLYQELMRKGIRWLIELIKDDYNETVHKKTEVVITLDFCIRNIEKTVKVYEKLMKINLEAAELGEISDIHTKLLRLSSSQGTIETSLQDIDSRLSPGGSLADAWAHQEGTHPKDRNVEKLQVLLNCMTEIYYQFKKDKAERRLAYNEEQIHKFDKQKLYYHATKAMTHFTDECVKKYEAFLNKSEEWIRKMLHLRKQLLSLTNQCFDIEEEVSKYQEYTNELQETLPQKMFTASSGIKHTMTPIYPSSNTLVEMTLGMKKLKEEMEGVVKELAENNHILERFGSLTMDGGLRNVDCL
Description: as §1

INSRR = biological target: T4, INSRR (Homo sapiens, UniProt P14616)
T4 construct: purchased ProQinase (Freiburg, Germany)
Description: as §1

WNK3 = biological target: T5, WNK3 (Homo sapiens, UniProt Q9BYP7)
T5 construct: purchased ProQinase (Freiburg, Germany)
Description: as §1

EPHA8 = biological target: T6, EPHA8 (Homo sapiens, UniProt P29322)
T6 construct: purchased ProQinase (Freiburg, Germany)
T6 sequence (P29322 28-1005): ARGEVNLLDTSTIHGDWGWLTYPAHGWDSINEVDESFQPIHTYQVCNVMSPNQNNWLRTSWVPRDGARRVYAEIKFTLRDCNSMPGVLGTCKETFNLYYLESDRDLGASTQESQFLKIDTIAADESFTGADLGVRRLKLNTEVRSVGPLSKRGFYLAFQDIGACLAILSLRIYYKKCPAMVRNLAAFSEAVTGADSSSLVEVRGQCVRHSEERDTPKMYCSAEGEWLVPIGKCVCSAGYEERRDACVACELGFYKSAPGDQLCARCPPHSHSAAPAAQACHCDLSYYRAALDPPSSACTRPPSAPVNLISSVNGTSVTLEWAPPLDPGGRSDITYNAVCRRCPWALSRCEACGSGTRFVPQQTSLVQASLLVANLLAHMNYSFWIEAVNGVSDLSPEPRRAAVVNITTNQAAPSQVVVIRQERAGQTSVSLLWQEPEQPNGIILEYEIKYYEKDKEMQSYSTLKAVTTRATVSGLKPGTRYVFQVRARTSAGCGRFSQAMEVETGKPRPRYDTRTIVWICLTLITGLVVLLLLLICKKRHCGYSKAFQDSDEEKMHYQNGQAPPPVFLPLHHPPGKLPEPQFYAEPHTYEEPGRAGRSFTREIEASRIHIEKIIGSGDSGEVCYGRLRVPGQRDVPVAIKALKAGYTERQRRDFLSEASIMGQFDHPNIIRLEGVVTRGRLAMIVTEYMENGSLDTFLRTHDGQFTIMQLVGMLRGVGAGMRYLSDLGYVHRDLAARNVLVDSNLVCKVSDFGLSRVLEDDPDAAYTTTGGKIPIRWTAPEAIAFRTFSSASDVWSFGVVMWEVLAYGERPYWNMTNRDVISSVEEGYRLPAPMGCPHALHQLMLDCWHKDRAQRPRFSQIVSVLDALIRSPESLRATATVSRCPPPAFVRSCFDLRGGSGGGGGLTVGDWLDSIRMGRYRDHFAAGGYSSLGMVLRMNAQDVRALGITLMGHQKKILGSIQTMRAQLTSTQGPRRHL
Description: as §1

SIK2 = biological target: T7, SIK2 (Homo sapiens, UniProt Q9H0K1)
T7 construct: purchased ProQinase (Freiburg, Germany)
Description: as §1

ERK5 = biological target: T8, ERK5 (Homo sapiens, UniProt Q13164)
T8 construct: purchased ProQinase (Freiburg, Germany)
Description: as §1

T2 sequence (P80192 whole entry): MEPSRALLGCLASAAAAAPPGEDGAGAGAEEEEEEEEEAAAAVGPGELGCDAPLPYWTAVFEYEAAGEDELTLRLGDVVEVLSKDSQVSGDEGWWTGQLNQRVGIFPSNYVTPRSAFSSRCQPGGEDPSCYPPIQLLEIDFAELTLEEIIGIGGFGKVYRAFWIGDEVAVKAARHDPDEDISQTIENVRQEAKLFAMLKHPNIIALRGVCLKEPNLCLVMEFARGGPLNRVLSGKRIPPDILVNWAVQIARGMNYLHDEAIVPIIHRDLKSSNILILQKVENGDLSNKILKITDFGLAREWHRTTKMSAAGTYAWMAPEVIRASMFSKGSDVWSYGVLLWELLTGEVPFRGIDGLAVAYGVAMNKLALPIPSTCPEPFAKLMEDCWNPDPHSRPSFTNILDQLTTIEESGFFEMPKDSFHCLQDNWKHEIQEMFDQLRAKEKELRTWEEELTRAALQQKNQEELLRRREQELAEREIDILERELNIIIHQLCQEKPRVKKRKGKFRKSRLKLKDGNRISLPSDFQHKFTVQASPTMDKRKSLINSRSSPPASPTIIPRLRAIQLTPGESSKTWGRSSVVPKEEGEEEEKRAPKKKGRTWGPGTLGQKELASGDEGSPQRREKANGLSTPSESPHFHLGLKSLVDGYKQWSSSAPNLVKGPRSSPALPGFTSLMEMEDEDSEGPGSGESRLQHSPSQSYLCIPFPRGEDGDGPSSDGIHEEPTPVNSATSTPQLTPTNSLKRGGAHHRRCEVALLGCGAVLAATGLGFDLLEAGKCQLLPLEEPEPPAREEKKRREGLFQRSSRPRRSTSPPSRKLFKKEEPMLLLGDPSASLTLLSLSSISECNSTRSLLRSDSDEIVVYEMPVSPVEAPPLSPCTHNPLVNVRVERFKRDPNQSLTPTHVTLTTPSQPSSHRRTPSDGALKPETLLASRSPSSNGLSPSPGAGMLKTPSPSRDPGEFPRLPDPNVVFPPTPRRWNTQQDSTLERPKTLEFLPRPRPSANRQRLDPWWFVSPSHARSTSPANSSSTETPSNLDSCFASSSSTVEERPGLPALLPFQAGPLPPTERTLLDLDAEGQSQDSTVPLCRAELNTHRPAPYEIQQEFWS
T1 sequence (Q96SB4 whole entry): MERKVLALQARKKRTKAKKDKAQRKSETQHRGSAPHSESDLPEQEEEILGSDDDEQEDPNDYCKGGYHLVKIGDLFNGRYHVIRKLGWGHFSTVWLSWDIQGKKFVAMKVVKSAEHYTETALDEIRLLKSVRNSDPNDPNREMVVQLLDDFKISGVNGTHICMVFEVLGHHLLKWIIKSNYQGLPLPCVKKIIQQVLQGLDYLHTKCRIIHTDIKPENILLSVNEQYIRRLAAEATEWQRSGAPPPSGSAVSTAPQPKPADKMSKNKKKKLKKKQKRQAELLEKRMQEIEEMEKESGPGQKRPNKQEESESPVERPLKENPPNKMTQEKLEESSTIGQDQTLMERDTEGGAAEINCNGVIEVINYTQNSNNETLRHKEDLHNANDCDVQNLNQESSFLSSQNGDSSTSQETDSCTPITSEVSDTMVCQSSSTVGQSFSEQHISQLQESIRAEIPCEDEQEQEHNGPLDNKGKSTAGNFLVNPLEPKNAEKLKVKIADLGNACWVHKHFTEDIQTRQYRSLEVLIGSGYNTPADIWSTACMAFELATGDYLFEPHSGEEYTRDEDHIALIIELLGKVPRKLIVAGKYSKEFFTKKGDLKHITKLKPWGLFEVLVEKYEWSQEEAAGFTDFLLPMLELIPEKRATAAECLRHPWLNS
T7 sequence (Q9H0K1 whole entry): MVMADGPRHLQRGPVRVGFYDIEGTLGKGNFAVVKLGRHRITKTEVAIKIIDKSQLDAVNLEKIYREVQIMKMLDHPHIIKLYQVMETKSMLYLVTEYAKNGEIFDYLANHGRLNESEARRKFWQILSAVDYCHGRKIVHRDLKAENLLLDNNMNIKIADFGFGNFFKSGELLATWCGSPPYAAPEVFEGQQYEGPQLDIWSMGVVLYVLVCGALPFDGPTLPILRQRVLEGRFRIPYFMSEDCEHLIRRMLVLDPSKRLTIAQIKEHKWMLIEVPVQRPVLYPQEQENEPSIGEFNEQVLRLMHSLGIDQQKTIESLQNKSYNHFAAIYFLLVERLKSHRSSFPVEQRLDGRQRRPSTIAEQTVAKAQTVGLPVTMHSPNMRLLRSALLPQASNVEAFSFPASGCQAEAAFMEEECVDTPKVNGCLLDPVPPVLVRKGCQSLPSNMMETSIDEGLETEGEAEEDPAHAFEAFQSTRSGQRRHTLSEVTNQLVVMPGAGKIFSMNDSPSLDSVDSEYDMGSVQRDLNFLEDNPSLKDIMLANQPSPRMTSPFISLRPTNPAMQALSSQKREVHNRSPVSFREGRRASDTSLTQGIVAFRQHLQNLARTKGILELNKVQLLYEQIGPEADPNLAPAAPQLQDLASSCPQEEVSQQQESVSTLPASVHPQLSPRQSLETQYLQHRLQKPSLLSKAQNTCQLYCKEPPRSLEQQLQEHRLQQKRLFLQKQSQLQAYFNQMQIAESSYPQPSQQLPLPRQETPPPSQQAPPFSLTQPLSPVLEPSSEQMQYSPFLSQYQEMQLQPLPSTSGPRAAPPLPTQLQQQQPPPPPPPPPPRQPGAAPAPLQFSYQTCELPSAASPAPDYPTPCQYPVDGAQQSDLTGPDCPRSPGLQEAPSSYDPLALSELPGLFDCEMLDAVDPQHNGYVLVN
T8 sequence (Q13164 whole entry): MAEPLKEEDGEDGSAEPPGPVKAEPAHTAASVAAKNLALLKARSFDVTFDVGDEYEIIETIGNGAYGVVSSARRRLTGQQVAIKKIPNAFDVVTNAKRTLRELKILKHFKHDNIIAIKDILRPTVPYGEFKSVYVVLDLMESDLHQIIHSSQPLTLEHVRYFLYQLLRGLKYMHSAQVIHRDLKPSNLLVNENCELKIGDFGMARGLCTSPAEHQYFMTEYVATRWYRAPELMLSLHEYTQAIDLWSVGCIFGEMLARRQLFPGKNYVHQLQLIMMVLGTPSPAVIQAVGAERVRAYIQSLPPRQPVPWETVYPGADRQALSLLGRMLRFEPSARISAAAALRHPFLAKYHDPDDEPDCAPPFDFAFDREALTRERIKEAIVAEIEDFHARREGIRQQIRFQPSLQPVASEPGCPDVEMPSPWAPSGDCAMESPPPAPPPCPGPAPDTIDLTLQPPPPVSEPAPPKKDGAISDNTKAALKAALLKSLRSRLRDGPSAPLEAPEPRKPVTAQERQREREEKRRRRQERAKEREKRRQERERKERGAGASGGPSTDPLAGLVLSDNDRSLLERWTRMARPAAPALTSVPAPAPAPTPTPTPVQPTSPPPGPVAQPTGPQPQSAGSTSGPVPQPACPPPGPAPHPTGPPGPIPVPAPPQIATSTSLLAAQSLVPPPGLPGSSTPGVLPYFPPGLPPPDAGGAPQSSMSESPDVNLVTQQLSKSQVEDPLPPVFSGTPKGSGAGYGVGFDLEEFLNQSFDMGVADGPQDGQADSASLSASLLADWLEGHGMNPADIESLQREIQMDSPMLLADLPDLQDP
T4 sequence (P14616 27-1297): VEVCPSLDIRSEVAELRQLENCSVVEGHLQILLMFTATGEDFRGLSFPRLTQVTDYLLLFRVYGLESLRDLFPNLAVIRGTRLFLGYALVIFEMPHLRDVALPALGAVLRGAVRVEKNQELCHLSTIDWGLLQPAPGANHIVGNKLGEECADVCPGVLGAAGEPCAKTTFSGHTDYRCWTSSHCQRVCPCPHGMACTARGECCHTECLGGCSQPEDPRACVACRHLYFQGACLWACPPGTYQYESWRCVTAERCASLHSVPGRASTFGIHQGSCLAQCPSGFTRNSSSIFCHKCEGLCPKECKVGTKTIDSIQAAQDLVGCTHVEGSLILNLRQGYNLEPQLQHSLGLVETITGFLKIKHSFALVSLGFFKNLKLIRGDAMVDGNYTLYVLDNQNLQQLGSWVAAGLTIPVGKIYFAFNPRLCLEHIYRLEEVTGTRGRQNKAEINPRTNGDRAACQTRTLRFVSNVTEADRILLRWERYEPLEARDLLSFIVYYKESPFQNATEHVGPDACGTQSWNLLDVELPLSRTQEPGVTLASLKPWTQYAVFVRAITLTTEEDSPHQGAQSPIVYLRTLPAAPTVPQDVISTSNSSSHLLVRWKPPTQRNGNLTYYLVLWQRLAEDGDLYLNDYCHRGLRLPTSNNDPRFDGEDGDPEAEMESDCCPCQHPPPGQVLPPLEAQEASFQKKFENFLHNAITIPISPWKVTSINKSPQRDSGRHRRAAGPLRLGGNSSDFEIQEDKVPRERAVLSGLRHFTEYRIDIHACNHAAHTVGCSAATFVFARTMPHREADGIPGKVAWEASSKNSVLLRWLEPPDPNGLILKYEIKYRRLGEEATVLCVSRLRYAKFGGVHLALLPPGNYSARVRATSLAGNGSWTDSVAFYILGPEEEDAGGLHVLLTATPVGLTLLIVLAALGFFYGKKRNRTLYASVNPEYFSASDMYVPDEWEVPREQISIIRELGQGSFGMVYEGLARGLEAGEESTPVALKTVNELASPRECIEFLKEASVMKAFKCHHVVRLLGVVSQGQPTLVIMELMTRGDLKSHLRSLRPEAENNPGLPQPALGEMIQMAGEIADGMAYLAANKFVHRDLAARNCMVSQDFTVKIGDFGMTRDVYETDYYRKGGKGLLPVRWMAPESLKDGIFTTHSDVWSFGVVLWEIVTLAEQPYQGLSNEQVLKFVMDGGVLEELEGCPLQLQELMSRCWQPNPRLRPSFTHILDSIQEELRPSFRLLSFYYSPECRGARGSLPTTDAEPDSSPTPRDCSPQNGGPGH

Row | SMILES | Residual activity (SRPK1; 1.0E-05 M) | Residual activity (SRPK1; 1.0E-06 M) | Residual activity (MAP3K9; 1.0E-05 M) | Residual activity (MAP3K9; 1.0E-06 M) | Residual activity (TBK1; 1.0E-05 M) | Residual activity (TBK1; 1.0E-06 M) | Residual activity (INSRR; 1.0E-05 M) | Residual activity (INSRR; 1.0E-06 M) | Residual activity (WNK3; 1.0E-05 M) | Residual activity (WNK3; 1.0E-06 M) | Residual activity (EPHA8; 1.0E-05 M) | Residual activity (EPHA8; 1.0E-06 M) | Residual activity (SIK2; 1.0E-05 M) | Residual activity (SIK2; 1.0E-06 M) | Residual activity (ERK5; 1.0E-05 M) | Residual activity (ERK5; 1.0E-06 M)
1 | O=C(Cc1ccccc1)Nc1ccc(F)c(Nc2ccc3c(c2)CCCCC3=O)c1 [Compound 100] | 71 % of control | 94 % of control | 96 % of control | 102 % of control | 101 % of control | 103 % of control | 90 % of control | 92 % of control | 109 % of control | 107 % of control | 91 % of control | 98 % of control | 81 % of control | 89 % of control | 103 % of control | 80 % of control
2 | O=C(Nc1ccc(F)c(Nc2ccc3c(c2)CCCCC3=O)c1)c1cccc(F)c1 [Compound 109] | 68 % of control | 96 % of control | 103 % of control | 89 % of control | 93 % of control | 93 % of control | 83 % of control | 92 % of control | 104 % of control | 93 % of control | 91 % of control | 110 % of control | 82 % of control | 93 % of control | 93 % of control | 90 % of control
